Measured values as given in patent US8642765B2, “Azaindole-indole coupled derivatives, preparation methods and uses thereof” (priority 2007, dated 2014).
Read-outs that look alike come from different tables or passages of the source.

What was measured:
[1] = Safety profile (stated in the discussion, no method described); conditions: discussion of Example 2; no data shown
DU145 tumor cells = assay: MTT growth inhibition of DU145 cells, 72 h; format: cell-based, human; conditions: for IC50 / IC90: DU145, 72 h, MTT; for growth inhibitory effects on tumor cells (in words): discussion of the MTT assay, DU145
Experimental: DU145 cells were inoculated in RPM11640 medium containing 10% calf serum, incubated at 37° C., 5% CO2 in CO2 incubator, and passaged every 2-3 days. In this experiment, cells were grown in logarithmic growth phase.
In the experiment, the cells at logarithmic growth phase were formulated into suspension, and the viability by trypan blue staining was more than 98%. The suspension was divided into several groups: 1 as blank control group (cell suspension); and 2 as experimental groups (cell suspension plus drugs).
(§1) The drugs were formulated into a stock solution in DMSO, and the concentration of the stock solution was 20 mmol (used within 4 hours). In the experiment, the work solution of the drugs was diluted with RPM11640 medium containing 10% calf serum under aseptic condition, to a final concentration of 80 μM. The drug concentrations were increased by 2 times (1.25-20 μM).
(§2) The DU145 cell in logarithmic growth phase were selected, centrifuged, counted, and formulated into a cell suspension (2.5×10^4/ml) with RPM11640 medium containing 10% calf serum. The cell suspension were inoculated into 96-well plates at a density of 5000 cells/200 μl per well, incubated for 24 hours at 37° C., 5% CO2. According to the above concentration of the drug, the cells were inoculated to 6 groups (including one control group), with 8 wells per group. After incubating for 72 hours, the viability of cells was measured by MTT assay. The absorbance value (A) was measured with detection wavelength at 540 nm, reference wavelength at 630 nm. The inhibitory rate (I) was calculated by the following equation, where T was the absorbance value of the experimental groups, and C was the absorbance value of the blank control group: I=(1−T/C)×100%
(§3) The regression equation was calculated by the concentration-inhibitory rate curve, to obtain 50% and 90% inhibition concentration (IC50 and IC90, μM).

[2] = Solubility assay in solvents; format: physicochemical; conditions: for solubility in Acetone / solubility in deionized water / solubility in ethanol / solubility in methanol / solubility in petroleum ether (boiling range: 60~90° C.) / solubility in trichlormethane: 5 mg in 2 ml solvent, room temperature (20° C.); for change of lipid solubility / change of water solubility: 129 relative to 91, 91 relative to indirubin
Experimental: Testing Methods: 5 mg of the compound no. 129 and 91 were respectively added into 2 ml solvent at room temperature (20° C.), and stirred to dissolve.

[3] = tested on: human leukemia cell line CEM; assay: MTT growth inhibition of CEM cells; format: cell-based; conditions: read-out: IC50 (μM) Tumor cells CEM
Experimental: as §1, §2, §3
(§4) 1. Tumor Cells: human hepatoma cell lines 7701 QGY and HepG-2, human lung adenocarcinoma cell line A549, human chronic myelocytic leukemia cell line K562, human leukemia cell line CEM and mouse melanoma cell line K111.
(§5) 2. Using the methods described in example 2, the biological activity of a portion of newly synthesized 5- or 7-azaindirubin derivatives and 5- or 7-azaisoindigo derivatives (20 compounds) for inhibiting various tumor cells growth were determined.

[4] = tested on: human chronic myelocytic leukemia cell line K562; assay: MTT growth inhibition of K562 cells; format: cell-based; conditions: read-out: IC50 (μM) Tumor cells K562
Experimental: as §1, §2, §3, §4, §5

[5] = tested on: human hepatoma cell line HepG-2; assay: MTT growth inhibition of HepG-2 cells; format: cell-based; conditions: HepG-2, MTT, read-out: IC50 (μM) Tumor cells HepG-2
Experimental: as §1, §2, §3, §4, §5

[6] = tested on: human hepatoma cell line 7701 QGY; assay: MTT growth inhibition of 7701 QGY cells; format: cell-based; conditions: read-out: IC50 (μM) Tumor cells 7701 QGY
Experimental: as §1, §2, §3, §4, §5

[7] = tested on: human lung adenocarcinoma cell line A549; assay: MTT growth inhibition of A549 cells; format: cell-based; conditions: read-out: IC50 (μM) Tumor cells A549
Experimental: as §1, §2, §3, §4, §5

[8] = tested on: mouse melanoma cell line K111; assay: MTT growth inhibition of K111 cells; format: cell-based; conditions: Klll, read-out: IC50 (μM) Tumor cells Klll
Experimental: as §1, §2, §3, §4, §5

[9] = Homo sapiens, DU-145, 72 h, Table 5
[10] = Homo sapiens, DU-145, 72 h, Table 6

SMILES: CC(C)N1C(=O)C(=C2Nc3ccc(Br)cc3C2=NO)c2cnccc21 [Compound 30]
- safety profile [1]: good safety profile
- IC50 (DU145 tumor cells; Table 5): 3.3 µM
- IC90 (DU145 tumor cells; Table 5): 7 µM
- growth inhibitory effects on tumor cells (in words) (DU145 tumor cells): relatively significant growth inhibitory effects

SMILES: CCN1C(=O)/C(=C2\Nc3ccccc3\C2=N/O)c2ccccc21 [Compound 91, 1-ethyl-indirubin-3′-oxime, reference compound]
- solubility in Acetone [2]: easily soluble
- solubility in deionized water [2]: insoluble
- solubility in ethanol [2]: dissoluble
- solubility in methanol [2]: slightly soluble
- solubility in petroleum ether (boiling range: 60~90° C.) [2]: slightly soluble
- solubility in trichlormethane [2]: easily soluble
- change of lipid solubility [2]: increased
- change of water solubility [2]: decreased
- IC50 (DU145 tumor cells; [9]): 4.2 µM
- IC90 (DU145 tumor cells; [9]): 21.8 µM
- IC50 (DU145 tumor cells; [10]): 4.1 µM
- IC90 (DU145 tumor cells; [10]): 22 µM

SMILES: CN1C(=O)C(=C2Nc3ccc(Cl)cc3C2=O)c2cccnc21 [Compound 102]
- IC50 [3]: 7 µM
- IC50 [4]: 9.5 µM
- IC50 [5]: 41.5 µM
- IC50 [6]: 39.5 µM
- IC50 [7]: 22.8 µM
- IC50 [8]: 18.2 µM
- IC50 (DU145 tumor cells; Table 6): 8 µM
- IC90 (DU145 tumor cells; Table 6): 18 µM

SMILES: CC(C)N1C(=O)C(=C2Nc3ccc(Br)cc3C2=O)c2cccnc21 [Compound 105]
- IC50 [3]: 8 µM
- IC50 [4]: 19 µM
- IC50 [5]: 32 µM
- IC50 [6]: 13.4 µM
- IC50 [7]: 24.1 µM
- IC50 [8]: 11.9 µM
- IC50 (DU145 tumor cells; Table 6): 8.1 µM
- IC90 (DU145 tumor cells; Table 6): 28.5 µM

SMILES: CC(C)N1C(=O)C(=C2Nc3ccc(Cl)cc3C2=O)c2cccnc21 [Compound 106]
- IC50 [3]: 10.2 µM
- IC50 [4]: 20.4 µM
- IC50 [5]: 18 µM
- IC50 [6]: 28 µM
- IC50 [7]: 19.6 µM
- IC50 [8]: 14 µM
- IC50 (DU145 tumor cells; Table 6): 18.5 µM
- IC90 (DU145 tumor cells; Table 6): 100 µM

SMILES: O=C1C(=C2C(=O)N(Cc3ccccc3)c3ncccc32)Nc2ccc(Br)cc21 [Compound 109, 1-benzyl-5′-bromo-7-azaindirubin]
- IC50 [3]: 9 µM
- IC50 [4]: 12.5 µM
- IC50 [5]: 21.2 µM
- IC50 [6]: 10 µM
- IC50 [7]: 15.8 µM
- IC50 [8]: 18.6 µM
- IC50 (DU145 tumor cells; Table 6): 7 µM
- IC90 (DU145 tumor cells; Table 6): 24 µM

SMILES: CNc1cnc2c(c1)C(=C1Nc3ccc(F)cc3C1=O)C(=O)N2Cc1ccccc1 [Compound 111]
- IC50 [3]: 11 µM
- IC50 [4]: 15 µM
- IC50 [5]: 17 µM
- IC50 [6]: 28.5 µM
- IC50 [7]: 24.3 µM
- IC50 [8]: 15.1 µM
- IC50 (DU145 tumor cells; Table 6): 7.4 µM
- IC90 (DU145 tumor cells; Table 6): 34 µM

SMILES: CN1C(=O)C(=C2Nc3ccc(Cl)cc3C2=NO)c2cccnc21 [Compound 116]
- IC50 [3]: 5.6 µM
- IC50 [4]: 8.2 µM
- IC50 [5]: 20.5 µM
- IC50 [6]: 11.1 µM
- IC50 [7]: 12.5 µM
- IC50 [8]: 6.3 µM
- IC50 (DU145 tumor cells; Table 6): 6.9 µM
- IC90 (DU145 tumor cells; Table 6): 16 µM
- growth inhibitory effects on tumor cells (in words) (DU145 tumor cells): relatively significant growth inhibitory effects

SMILES: CCN1C(=O)C(=C2Nc3ccc(Br)cc3C2=NO)c2cccnc21 [Compound 119]
- IC50 [3]: 9 µM
- IC50 [4]: 7.9 µM
- IC50 [5]: 8.1 µM
- IC50 [6]: 13.5 µM
- IC50 [7]: 8.5 µM
- IC50 [8]: 8.1 µM
- IC50 (DU145 tumor cells; Table 6): 4 µM
- IC90 (DU145 tumor cells; Table 6): 12 µM

SMILES: CN1C(=O)C(=C2Nc3ccccc3C2=NO)c2cccnc21 [Compound 128]
- IC50 [3]: 10.5 µM
- IC50 [4]: 7.7 µM
- IC50 [5]: 12.6 µM
- IC50 [6]: 7.6 µM
- IC50 [7]: 10 µM
- IC50 [8]: 3.6 µM
- IC50 (DU145 tumor cells; Table 6): 2.7 µM
- IC90 (DU145 tumor cells; Table 6): 7.1 µM

SMILES: CCN1C(=O)/C(=C2\Nc3ccccc3\C2=N/O)c2cccnc21 [Compound 129]
- IC50 ([3]; Homo sapiens, CCRF-CEM): 7 µM
- IC50 ([4]; Homo sapiens): 3.4 µM
- solubility in Acetone [2]: slightly soluble
- solubility in deionized water [2]: slightly soluble
- solubility in ethanol [2]: slightly soluble
- solubility in methanol [2]: soluble
- solubility in petroleum ether (boiling range: 60~90° C.) [2]: insoluble
- solubility in trichlormethane [2]: slightly soluble
- change of lipid solubility [2]: decreased
- change of water solubility [2]: increased
- IC50 ([5]; Homo sapiens, HepG2): 13 µM
- IC50 ([6]; Homo sapiens): 7.4 µM
- IC50 ([7]; Homo sapiens): 14.1 µM
- IC50 ([8]; Mus musculus): 4.2 µM
- IC50 (DU145 tumor cells; [10]): 3.8 µM
- IC90 (DU145 tumor cells; [10]): 12 µM

SMILES: CN1C(=O)C(=C2C(=O)Nc3ccc(F)cc32)c2cccnc21 [Compound 154]
- IC50 [3]: 9.8 µM
- IC50 [4]: 19 µM
- IC50 [5]: 29.3 µM
- IC50 [6]: 36 µM
- IC50 [7]: 12.4 µM
- IC50 [8]: 12 µM
- IC50 (DU145 tumor cells; Table 6): 43 µM
- IC90 (DU145 tumor cells; Table 6): > 100 µM

SMILES: CC(=O)OCC1OC(N2C(=O)C(=C3C(=O)Nc4ccccc43)c3cc(C)cnc32)C(OC(C)=O)C1OC(C)=O (centres unmarked) [Compound 158]
- IC50 [3]: 12 µM
- IC50 [4]: 5.8 µM
- IC50 [5]: 18 µM
- IC50 [6]: 44 µM
- IC50 [7]: 22.3 µM
- IC50 [8]: 8.3 µM
- IC50 (DU145 tumor cells; Table 6): 10.5 µM
- IC90 (DU145 tumor cells; Table 6): 49 µM

SMILES: CCN1C(=O)C(=C2C(=O)N(CC)c3ncccc32)c2cc(Br)ccc21 [Compound 160]
- IC50 [3]: 10.8 µM
- IC50 [4]: 10.2 µM
- IC50 [5]: 31.1 µM
- IC50 [6]: 25.4 µM
- IC50 [7]: 29.1 µM
- IC50 [8]: 15 µM
- IC50 (DU145 tumor cells; Table 6): 14 µM
- IC90 (DU145 tumor cells; Table 6): 61 µM

SMILES: CC(C)N1C(=O)C(=C2C(=O)Nc3ccccc32)c2cccnc21 [Compound 164, 1-isopropyl-7-azaisoindigo]
- IC50 [3]: 12.7 µM
- IC50 [4]: 18.6 µM
- IC50 [5]: 29 µM
- IC50 [6]: 33.1 µM
- IC50 [7]: 23.3 µM
- IC50 [8]: 9.1 µM
- IC50 (DU145 tumor cells; Table 6): 9.05 µM
- IC90 (DU145 tumor cells; Table 6): 19 µM

SMILES: CCCCN1C(=O)C(=C2C(=O)Nc3ccc(Br)cc32)c2cccnc21 [Compound 170]
- IC50 [3]: 8.5 µM
- IC50 [4]: 10.3 µM
- IC50 [5]: 25 µM
- IC50 [6]: 28 µM
- IC50 [7]: 19.5 µM
- IC50 [8]: 18.5 µM
- IC50 (DU145 tumor cells; Table 6): 15 µM
- IC90 (DU145 tumor cells; Table 6): 90 µM
